{"source": "a melting point compilation (Tetko et al.)"}
{"units": {"melting point": "°C"}}
{"smiles": "NC(=O)n1c(C2CCCCC2)nn(-c2ccccc2)c1=O", "melting point": 198}
{"smiles": "O=C(O)c1cc(Cl)cc(Cl)c1Cl", "melting point": 166}
{"smiles": "Cc1c(Cl)cccc1C(=O)O", "melting point": 164}
{"smiles": "O=C(c1ccccc1)N1CC(c2ccccc2)C=C1c1ccccc1", "note": "(centres undefined)", "melting point": 180}
{"smiles": "CCOC(=O)c1nn(-c2ccccc2)c(=N)c(-c2nc3ccccc3s2)c1C", "melting point": 148}
{"smiles": "FC(F)OC(F)F", "melting point": -123}
{"smiles": "CCC1CCC(C)C1", "note": "(centres undefined)", "melting point": -108}
{"smiles": "CC1(C)C2CCC1(C)C(/N=C\\c1ccc([N+](=O)[O-])cc1)C2/N=C/c1ccc([N+](=O)[O-])cc1", "note": "(centres undefined)", "melting point": 170}
{"smiles": "c1ccc(C2OCCCO2)cc1", "melting point": 41}
{"smiles": "CC(C)n1cc(-c2ccc(F)cc2)c2ccccc21", "melting point": 97}
{"smiles": "CCC(=O)OC1CCC2(C)C(=CCC3C2CCC2(C)C(C(C)CCCC(C)C)CCC32)C1", "note": "(centres undefined)", "melting point": "97 to 100"}
{"smiles": "Brc1ccc(Oc2c(Br)cccc2Br)c(Br)c1", "melting point": "96 to 97"}
{"smiles": "CN(C)CC(O)Cn1c2ccc(Br)cc2c2cc(Br)ccc21", "note": "(centres undefined)", "melting point": "153 to 154"}
{"smiles": "CC(=O)CCc1ccccc1", "melting point": -13}
{"smiles": "C=C1C(C)C2C(Cc3ccccc3)NC(=O)C23OC(=O)CCC(O)CCCC(C)CC=CC3C1O", "note": "(centres undefined)", "melting point": "203 to 205"}
{"smiles": "CCCCC(=O)c1ccc(O)cc1", "melting point": "62 to 65"}
{"smiles": "NCCSS(=O)(=O)O", "melting point": "191 to 194"}
{"smiles": "O=Cc1cnc(Br)s1", "melting point": 94}
{"smiles": "ON=Cc1ccco1", "melting point": "78 to 80"}
{"smiles": "N#Cc1ccc(N)c(Cl)c1", "melting point": 101}
{"smiles": "CC1OC1P(=O)(O)O", "note": "(centres undefined)", "melting point": 94}
{"smiles": "FC(F)(F)C(F)(Cl)C(Cl)(Cl)C(F)(F)F", "note": "(centres undefined)", "melting point": 4}
{"smiles": "CC(C)C(O)(c1ccc(OC(F)(F)F)cc1)c1cncnc1", "note": "(centres undefined)", "melting point": 95.3}
{"smiles": "CCCCCNc1cc(=O)oc2ccccc12", "melting point": 163}
{"smiles": "Nc1ccc(Cl)cc1Br", "melting point": 66}
{"smiles": "FC(F)(F)C(F)(F)C(F)(F)C(F)(F)C(F)(F)C(F)(F)C(F)(F)C(F)(F)C(F)(F)C(F)(F)C(F)(F)C(F)(F)F", "melting point": "75 to 77"}
{"smiles": "Cc1cncc(N2CCNCC2)n1", "melting point": "49 to 51"}
{"smiles": "NNC(=O)c1ccc([N+](=O)[O-])cc1", "melting point": "210 to 214"}
{"smiles": "COc1ccc(-c2ccc(S(=O)(=O)NCC(=O)O)cc2)cc1", "melting point": 186}
{"smiles": "COc1ccc(C(=O)c2ccc(-c3ccccc3)cc2)cc1OC", "melting point": "107 to 109"}
{"smiles": "CC(C)N(C(=O)SCC(Cl)=CCl)C(C)C", "melting point": 25}
{"smiles": "Cc1cccc2c1C(=O)OC2", "melting point": 86}
{"smiles": "Brc1ccc(-c2ccno2)s1", "melting point": "66 to 67"}
{"smiles": "CC(=O)OCCBr", "melting point": -13.8}
{"smiles": "CCCC(C(N)=O)c1ccc(O)c(O)c1", "note": "(centres undefined)", "melting point": "133 to 135"}
{"smiles": "CC(=O)OC[C@H]1O[C@@H](O[C@H]2[C@H](OC(C)=O)[C@@H](OC(C)=O)[C@@H](OC(C)=O)O[C@@H]2COC(C)=O)[C@H](OC(C)=O)[C@@H](OC(C)=O)[C@@H]1OC(C)=O", "melting point": 230}
{"smiles": "O=C(O)c1ccc2[nH]cnc2c1", "melting point": 300}
{"smiles": "O=c1[nH]c2ccc([N+](=O)[O-])cc2c(=O)o1", "melting point": "259 to 263"}
{"smiles": "O=[N+]([O-])OC1COC2C(O[N+](=O)[O-])COC12", "note": "(centres undefined)", "melting point": 61}
{"smiles": "O=C(NCc1ccccn1)c1cc([N+](=O)[O-])cc([N+](=O)[O-])c1", "melting point": 120}
{"smiles": "Cc1occc1C(=O)CC#N", "melting point": "95 to 97"}
{"smiles": "O=c1c(C2CC(c3ccc(OCc4ccc(C(F)(F)F)cc4)cc3)Cc3ccccc32)c(O)oc2ccccc12", "note": "(centres undefined)", "melting point": 92.5}
{"smiles": "CN1CCN(C)C(C(=O)NN)C1", "note": "(centres undefined)", "melting point": 113}
{"smiles": "O=S(=O)(Oc1ccccc1)c1ccccc1C=Cc1ccccc1S(=O)(=O)Oc1ccccc1", "melting point": 180}
{"smiles": "CCCCCCCCCCCCCCCC(=O)Oc1ccc([N+](=O)[O-])cc1", "melting point": 66}
{"smiles": "Cc1c(C(N)=O)cc([N+](=O)[O-])cc1[N+](=O)[O-]", "melting point": 177}
{"smiles": "Cc1nc2ccccc2[nH]c(=O)c1=NNc1cc(-c2ccccc2)n[nH]1", "melting point": 160}
{"smiles": "O=Cc1cccc2ccsc12", "melting point": "42 to 43.5"}
{"smiles": "CN(C)C(=S)Cl", "melting point": 42.5}
{"smiles": "COc1ccc(OC)c(C=C[N+](=O)[O-])c1", "melting point": "114 to 119"}
{"smiles": "CC(CC1CCCCC1)CC1CCCCC1", "melting point": 0.6}
{"smiles": "CCCC(c1ccccc1)c1ccccc1", "melting point": 27}
{"smiles": "Nc1ccc(-c2ccccc2N)cc1", "melting point": 54.5}
{"smiles": "COc1ccc(Nc2cccc(C(F)(F)F)c2)cc1", "melting point": 58}
{"smiles": "Brc1nc2ccccc2s1", "melting point": "40 to 42"}
{"smiles": "CCCCCCCCCCCCCCCCCCCCCCCCCCCCCCCCCC", "melting point": 72.6}
{"smiles": "c1ccc(-c2oc(-c3ccccc3)c3ccccc23)cc1", "melting point": 135}
{"smiles": "O=Cc1ccc(N2CCCC2)c([N+](=O)[O-])c1", "melting point": "103 to 105"}
{"smiles": "C=CC(=O)NC(O)C(=O)O", "note": "(centres undefined)", "melting point": "123 to 127"}
{"smiles": "O=C(O)C=CC(=O)C=CC(=O)O", "melting point": 300}
{"smiles": "Brc1ccc(Oc2cccc(Br)c2)cc1", "melting point": "< 20"}
{"smiles": "Cc1cc(CO)ccc1[N+](=O)[O-]", "melting point": "56 to 60"}
{"smiles": "NS(=O)(=O)c1cc(Cl)sc1Cl", "melting point": "131 to 133"}
{"smiles": "Cc1nc(-c2ccc(C#N)cc2)cs1", "melting point": 154}
{"smiles": "COc1cc(N)cc(OC)c1", "melting point": 55}
{"smiles": "Cc1ccc(C)c(N/N=C(\\C#N)c2nc3ccccc3n2C)c1", "melting point": 260}
{"smiles": "O=Cc1cccc2cnccc12", "melting point": 115}
{"smiles": "Cc1cc2oc(-c3ccccc3)cc(=O)c2cc1Cl", "melting point": "174 to 178"}
{"smiles": "CCOC(=O)c1cc(-c2cccs2)n(C)n1", "melting point": "38 to 41"}
{"smiles": "CON(C)C(=O)Nc1ccc(Br)cc1", "melting point": 95}
{"smiles": "Cc1nn(C)c(C)c1S(=O)(=O)Cl", "melting point": "39 to 42"}
{"smiles": "CC(=NO)c1ccc(Cl)cc1Cl", "melting point": "148 to 151"}
{"smiles": "CC(=O)c1ccc(C)c(F)c1", "melting point": 33}
{"smiles": "C/C(=N\\N=C1C(=O)Nc2ccccc21)c1c(O)c2ccccc2n(-c2ccccc2)c1=O", "melting point": 267}
{"smiles": "CC(=O)OC1OC(COC(=O)c2ccccc2)C(OC(=O)c2ccccc2)C1OC(=O)c1ccccc1", "note": "(centres undefined)", "melting point": "128 to 130"}
{"smiles": "CC(NC(=O)COCCN1C(=O)c2ccccc2C1=O)[P+]([O-])(Oc1ccccc1)Oc1ccccc1", "note": "(centres undefined)", "melting point": 107}
{"smiles": "O=c1c(Cl)c(Cl)cnn1-c1ccc(F)c(Cl)c1", "melting point": "201 to 203"}
{"smiles": "CCOC(=O)C1=C(C)NC(=S)NC1c1ccccc1", "note": "(centres undefined)", "melting point": "207 to 209"}
{"smiles": "CC(=O)OC1CCC2C3CCC4CC(C#Cc5ccccc5)(OC(C)=O)CCC4(C)C3CCC12C", "note": "(centres undefined)", "melting point": "100 to 111"}
{"smiles": "N#Cc1ccc(N2CCCC2)cn1", "melting point": "106 to 108"}
{"smiles": "CC1(C)C2CC3C(C2)C31C", "melting point": 67.5}
{"smiles": "O=C(c1ccccc1)c1ccsc1C(=O)O", "melting point": 152}
{"smiles": "CC1CCC(C)CC1", "note": "(centres undefined)", "melting point": -36.9}
{"smiles": "COc1ccc(Br)c2c1C(=O)C2", "melting point": 74}
{"smiles": "c1ccc(-c2nnc3n2CN(c2ccccn2)CS3)cc1", "melting point": "223 to 224"}
{"smiles": "CC(=O)OCC(=O)C1(OC(C)=O)CCC2(C)C(CCC3C4CCC(=O)C4(C)CCC32)C1", "note": "(centres undefined)", "melting point": 141}
{"smiles": "CC1(C)CC(=O)c2c(C(=O)c3ccc(Cl)cc3)noc2C1", "melting point": 126}
{"smiles": "CC1(C)OC2CC3C4CC(F)C5=CC(=O)C=CC5(C)C4(F)C(O)CC3(C)C2(C(=O)CO)O1", "note": "(centres undefined)", "melting point": 266}
{"smiles": "Cc1ccc(N/N=C(/C(=O)c2cccc3ccccc23)S(=O)(=O)c2ccccc2)cc1", "melting point": "108 to 110"}
{"smiles": "CCCSP(=O)(OCC)SCCC", "melting point": 70}
{"smiles": "O=C(Nc1ccccc1)N(Cc1ccc(Cl)cc1)C1CCCC1", "melting point": 132}
{"smiles": "CC(=O)c1cc(Br)ccc1O", "melting point": "58 to 61"}
{"smiles": "CSCS(=O)(=O)c1ccc(C)cc1", "melting point": 79}
{"smiles": "O=C(c1ccccc1)c1ccccc1Cl", "melting point": 46}
{"smiles": "CN1CC(C(=O)NC2(C)OC3(O)C4CCCN4C(=O)C(Cc4ccccc4)N3C2=O)C=C2c3cccc4[nH]cc(c34)CC21", "note": "(centres undefined)", "melting point": 214}
{"smiles": "O=C(N[C@H](Cc1cccc(Br)c1)C(=O)O)OCC1c2ccccc2-c2ccccc21", "melting point": 146}
{"smiles": "OC1(c2ccc(Cl)cc2)CCNCC1", "melting point": "139 to 141"}
{"smiles": "FC(F)(F)c1nnc2sc(=S)[nH]n12", "melting point": 160}
{"smiles": "Cc1c(C)c(C)c(C(=O)c2ccccc2)c(C)c1C", "melting point": 138}
{"smiles": "O=C(C=NO)Nc1ccc(Cl)cc1Cl", "melting point": "198 to 201"}
{"smiles": "Cc1cncc([N+](=O)[O-])c1", "melting point": 96}
{"smiles": "CC(C)CS", "melting point": -145}
{"smiles": "Clc1cc2oc3c(Cl)c(Cl)c(Cl)cc3c2cc1Cl", "melting point": 196}
{"smiles": "O=C(C1CCNCC1)N1CCCCC1", "melting point": "107 to 109"}
{"smiles": "O=S(=O)(c1ccc(N=C=S)cc1)c1ccc(N=C=S)cc1", "melting point": "187 to 189"}
{"smiles": "CCCCCCCCCCOC(=O)CCCCC(=O)OCCCCCCCC", "melting point": -50}
{"smiles": "O=C1c2ccc(C=NO)cc2C(=O)c2c(Cl)c(Cl)c(Cl)c(Cl)c21", "melting point": "234 to 235"}
{"smiles": "COC(=O)c1cc(Br)cc(Br)c1N", "melting point": 88}
{"smiles": "O=C(O)Cc1coc2ccccc12", "melting point": "90 to 93"}
{"smiles": "NC(CC(F)(F)F)C(=O)O", "note": "(centres undefined)", "melting point": "256 to 258"}
{"smiles": "CCC(C)n1c(=O)[nH]c(C)c(Br)c1=O", "note": "(centres undefined)", "melting point": 158}
{"smiles": "Cc1c(CCO)c(=O)n2c([nH]c3ccccc32)c1C#N", "melting point": 250}
{"smiles": "CCOC(=O)c1cc(C)n(CO)n1", "melting point": 71}
{"smiles": "O=P(c1ccccc1)(c1ccccc1)C1C=C(c2ccccc2)C=C(c2ccccc2)O1", "note": "(centres undefined)", "melting point": "151 to 152"}
{"smiles": "CCCCCCCCCCCCCCCC#N", "melting point": 31}
{"smiles": "O=CC(Cl)=Cc1ccccc1", "melting point": "20 to 22"}
{"smiles": "CN(C)C1=C(C=C(c2ccc(F)cc2)c2ccc(F)cc2)C(=O)N(c2ccccc2)C1=O", "melting point": 157}
{"smiles": "CCOC=C(C#N)S(=O)(=O)c1ccccc1", "melting point": 74}
{"smiles": "CCOC(=O)CC(C(C)=O)C(=O)OCC", "note": "(centres undefined)", "melting point": -8}
{"smiles": "Cc1nc(C2CCN(C(=O)OC(C)(C)C)CC2)sc1C(=O)O", "melting point": "124 to 128"}
{"smiles": "COc1ccc(/N=N/c2c(N)nn3c(C)cc(C)nc23)cc1", "melting point": "201 to 203"}
{"smiles": "c1ccc2c(c1)ccc1nc3c(ccc4ccccc43)cc12", "melting point": 226}
{"smiles": "O=C(N[C@H](Cc1ccc(Cl)cc1)C(=O)O)OCC1c2ccccc2-c2ccccc21", "melting point": 147}
{"smiles": "Cc1nc(-c2ccccc2)c(C=O)s1", "melting point": "72 to 75"}
